Publication PMC8040043, “Synthesis, Inhibitory Activity, and In Silico Modeling of Selective COX-1 Inhibitors with a Quinazoline Core” (ACS Medicinal Chemistry Letters, 2021)

Assays:
human recombinant COX-2 = biological target: T1, human recombinant COX-2 (Homo sapiens, UniProt P35354); test: COX-2 in vitro enzymatic assay (PGE2 ELISA); format: biochemical; conditions: for inhibition at 20 µM: compound at 20 μM; for inhibition of COX-2 (in words): at 50 μM
T1 construct: purchased Sigma-Aldrich
T1 sequence (P35354 18-604): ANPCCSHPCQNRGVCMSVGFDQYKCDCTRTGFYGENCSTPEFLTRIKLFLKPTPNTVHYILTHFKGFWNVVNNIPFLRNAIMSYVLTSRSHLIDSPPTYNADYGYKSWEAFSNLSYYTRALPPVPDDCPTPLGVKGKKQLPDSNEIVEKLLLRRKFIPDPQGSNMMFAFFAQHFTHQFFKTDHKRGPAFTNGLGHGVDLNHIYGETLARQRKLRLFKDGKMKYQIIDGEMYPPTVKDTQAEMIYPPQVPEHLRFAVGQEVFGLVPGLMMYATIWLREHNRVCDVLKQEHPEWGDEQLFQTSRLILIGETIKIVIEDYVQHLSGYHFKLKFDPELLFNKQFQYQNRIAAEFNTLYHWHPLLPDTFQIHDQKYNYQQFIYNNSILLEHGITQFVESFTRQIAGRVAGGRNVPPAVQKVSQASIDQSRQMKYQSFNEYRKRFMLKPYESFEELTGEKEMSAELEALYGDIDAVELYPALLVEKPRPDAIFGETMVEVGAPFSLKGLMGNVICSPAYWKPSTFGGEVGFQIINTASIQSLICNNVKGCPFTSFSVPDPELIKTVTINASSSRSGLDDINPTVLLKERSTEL
Procedure: (§1) The inhibitory activity of compounds was tested using in vitro enzymatic assay. Ovine COX-1 (1 unit/reaction) or human recombinant COX-2 (0.5 unit/reaction; both enzymes Sigma-Aldrich, USA) was added to 180 µL of 100 mM Tris buffer (pH 8.0), containing 5 μM porcine hematin, 18 mM L-epinephrine, and 50 μM Na2EDTA. Ten µL of tested compound dissolved in DMSO or pure DMSO (as a blank) were added to the reaction.
(§2) Sigma-Aldrich, USA) was used as a reference inhibitor. After 5 min incubation at room temperature, reaction was initiated by 5 µL of arachidonic acid (10 µM) and incubated 20 min in 37°C. Then the reaction was stopped by 20 µL of formic acid (10% v/v). The concentration of prostaglandin E2 (PGE2) was measured with Prostaglandin E2 ELISA kit (Enzo Life Sciences, USA). Reaction mixture was diluted 1:15 in assay buffer (provided in the kit) and incubated according to the manufacturer instructions.
(§3) The concentration of PGE2 produced during the reaction was estimated according to absorbance […]
(§4) inhibitory activity was calculated as percentual inhibition of PGE2 production compared to blank. At first, the inhibitory activity of compounds was tested at 20 µM to see if there is any activity. IC50 […]
(§5) of COX-2. The level of percentual inhibition was chosen based on the percentual inhibition caused by […]
(§6) All the experiments were carried out in duplicates and repeated at least two times. To test whether increasing substrate concentration influences the activity of […]
(§7) reference compound. The inhibitory activity was calculated as percentual inhibition of PGE2 production compared to blank with respective concentration of AA. […]

Ovine COX-1 = biological target: T2, Ovine COX-1 (Ovis aries, UniProt P05979); test: COX-1 in vitro enzymatic assay (PGE2 ELISA); format: biochemical; conditions: for inhibition at 20 µM: compound at 20 μM; for selectivity index (COX-2/COX-1): ratio of IC50 COX-2 / IC50 COX-1; for inhibitory activity in COX assays (in words): less than 50% inhibition on both COX isoforms considered inactive
T2 construct: purchased Sigma-Aldrich
T2 sequence (P05979 25-600): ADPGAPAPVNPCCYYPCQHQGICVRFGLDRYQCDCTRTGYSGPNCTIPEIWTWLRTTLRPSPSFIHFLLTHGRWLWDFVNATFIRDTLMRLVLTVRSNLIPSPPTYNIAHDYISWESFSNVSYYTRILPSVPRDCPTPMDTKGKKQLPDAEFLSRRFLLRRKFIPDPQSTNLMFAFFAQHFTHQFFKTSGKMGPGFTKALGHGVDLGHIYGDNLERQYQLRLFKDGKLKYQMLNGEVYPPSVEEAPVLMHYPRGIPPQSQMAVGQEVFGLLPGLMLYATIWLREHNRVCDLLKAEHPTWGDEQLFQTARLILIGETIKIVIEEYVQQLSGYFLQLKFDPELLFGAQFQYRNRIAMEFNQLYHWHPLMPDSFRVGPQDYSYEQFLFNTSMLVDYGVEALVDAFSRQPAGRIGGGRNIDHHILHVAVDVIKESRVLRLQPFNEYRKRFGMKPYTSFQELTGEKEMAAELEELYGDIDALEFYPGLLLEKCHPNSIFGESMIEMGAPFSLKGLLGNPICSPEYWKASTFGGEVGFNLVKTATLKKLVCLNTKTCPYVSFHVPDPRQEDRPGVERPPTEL
Procedure: as §1, §2, §3, §4, §5, §6, §7

Structure (SMILES)	inhibition at 20 µM (human recombinant COX-2)	inhibition at 20 µM (Ovine COX-1)	further results
CCOC(=O)c1ccc(Nc2nc(/C=C/c3ccccc3)nc3ccccc23)cc1 [3e]	-16.3%	6.76%	
CCCCc1ccc(Nc2nc(/C=C/c3ccccc3)nc3ccccc23)cc1 [3n]	5.59%	12.8%	
COc1cc(Nc2nc(/C=C/c3ccccc3)nc3ccccc23)cc(OC)c1 [3s]	-14.1%	23.1%	
C(=C\c1nc(Nc2cccc3cccnc23)c2ccccc2n1)/c1ccccc1 [3h]	3.02%	31.5%	
FC(F)(F)c1cc(Nc2nc(/C=C/c3ccccc3)nc3ccccc23)cc(C(F)(F)F)c1 [3t]	10.8%	20.8%	
C(=C\c1nc(N2CCNCC2)c2ccccc2n1)/c1ccccc1 [3d]	-4.94%	31.2%	
O=[N+]([O-])c1ccc(Nc2nc(/C=C/c3ccccc3)nc3ccccc23)cc1 [3g]	-24.4%	13.7%	
Fc1cc(F)c(Nc2nc(/C=C/c3ccccc3)nc3ccccc23)c(F)c1 [3q]	12.6%	24.9%	
C(=C\c1nc(Nc2ccccn2)c2ccccc2n1)/c1ccccc1 [3i]	-11.1%	17.7%	
Nc1ccc(Oc2nc(/C=C/c3ccccc3)nc3ccccc23)cc1 [3v]	3.5%	94.3%	IC50 (human recombinant COX-2): > 50 µM; inhibition of COX-2 (in words) (human recombinant COX-2): did not inhibit
Fc1ccc(CNc2nc(/C=C/c3ccccc3)nc3ccccc23)cc1F [3k]	71.8%	96.8%	IC50 (human recombinant COX-2): 10.1 ± 1.38 µM; IC50 (Ovine COX-1): 1.9 ± 0.69 µM; selectivity index (COX-2/COX-1) (Ovine COX-1): 5.32
Cc1cc(C)c(Nc2nc(/C=C/c3ccccc3)nc3ccccc23)c(C)c1 [3p]	-22.9%	38%	
Cc1ccc(Nc2nc(/C=C/c3ccccc3)nc3ccccc23)cc1 [3b]	3.54%	95.2%	IC50 (human recombinant COX-2): 43 ± 10.3 µM
FC(F)(F)c1ccc(Nc2nc(/C=C/c3ccccc3)nc3ccccc23)cc1 [3u]	16.4%	16.8%	
COc1ccc(Nc2nc(/C=C/c3ccccc3)nc3ccccc23)cc1 [3c]	2.64%	95.3%	IC50 (human recombinant COX-2): 37.3 ± 9.36 µM
Cc1ccc(Nc2nc(/C=C/c3ccccc3)nc3ccccc23)cc1C [3a]	-38.7%	50.5%	
Cc1cc(F)cc(Br)c1Nc1nc(/C=C/c2ccccc2)nc2ccccc12 [3r]	-1.77%	30.6%	
Fc1ccc(Nc2nc(/C=C/c3ccccc3)nc3ccccc23)cc1F [3f]	-14.5%	27.6%	
COC(=O)CCNc1nc(/C=C/c2ccccc2)nc2ccccc12 [3l]	14.9%	46.2%	
Cc1cc(Nc2nc(/C=C/c3ccccc3)nc3ccccc23)n[nH]1 [3j]	13.8%	41.6%	
CCCOc1ccc(Nc2nc(/C=C/c3ccccc3)nc3ccccc23)cc1 [3o]	-4.79%	7.33%	
CC(C)(C)c1ccc(Nc2nc(/C=C/c3ccccc3)nc3ccccc23)cc1 [3m]	9.92%	14%	

The next lines start with results.

inhibition at 20 µM (human recombinant COX-2)	inhibition at 20 µM (Ovine COX-1)	Structure (SMILES)	further results
-1.39%	-10.9%	CCN(CC)c1nc(NCc2ccc(OC)cc2)c2ccc(-c3ccc(OC)cc3)cc2n1 [7d]	
22.7%	48.8%	COc1ccc(CNc2nc(Cl)nc3cc(Br)ccc23)cc1 [5a]	
7.04%	34.1%	COc1ccc(CNc2nc(Cl)nc3cc(-c4ccc(OC)cc4)ccc23)cc1 [6a]	
-10.1%	-13.9%	COc1ccc(CNc2nc(N3CCNCC3)nc3cc(-c4ccc(F)cc4)ccc23)cc1 [7g]	
24.2%	-16.5%	COc1ccc(CNc2nc(N3CCNCC3)nc3cc(-c4ccc(OC)cc4)ccc23)cc1 [7c]	
27.6%	26.6%	COc1ccc(CNc2nc(Cl)nc3cc(-c4ccc(F)cc4)ccc23)cc1 [6b]	
3.22%	32.1%	COc1ccc(CNc2nc(N3CCCC3)nc3cc(-c4ccc(F)cc4)ccc23)cc1 [7f]	
26.5%	31.6%	COc1ccc(-c2ccc3c(NCc4ccc(F)c(F)c4)nc(Cl)nc3c2)cc1 [6d]	
32.3%	92.4%	COc1ccc(CNc2nc(Cl)nc3cc(-c4cccs4)ccc23)cc1 [6c]	IC50 (human recombinant COX-2): > 50 µM; inhibition of COX-2 (in words) (human recombinant COX-2): did not inhibit
11.7%	-6.25%	COc1ccc(-c2ccc3c(NCc4ccc(F)c(F)c4)nc(N4CCNCC4)nc3c2)cc1 [7m]	
19.4%	6.91%	COc1ccc(CNc2nc(N3CCCC3)nc3cc(-c4ccc(OC)cc4)ccc23)cc1 [7b]	
14.6%	18%	CCN(CC)c1nc(NCc2ccc(F)c(F)c2)c2ccc(-c3ccc(OC)cc3)cc2n1 [7n]	
27.5%	82.2%	Cc1ccc(Nc2nc(/C=C/c3ccccc3)nc3cc(Br)ccc23)cc1 [8a]	IC50 (human recombinant COX-2): > 50 µM
7.98%	6.66%	COc1ccc(-c2ccc3c(NCc4ccc(F)c(F)c4)nc(N4CCOCC4)nc3c2)cc1 [7k]	
8.82%	-23.6%	COc1ccc(-c2ccc3c(NCc4ccc(F)c(F)c4)nc(N4CCCC4)nc3c2)cc1 [7l]	
21.5%	84.7%	Fc1ccc(CNc2nc(/C=C/c3ccccc3)nc3cc(Br)ccc23)cc1F [8b]	IC50 (human recombinant COX-2): > 50 µM; IC50 (Ovine COX-1): 1.58 ± 0.89 µM; selectivity index (COX-2/COX-1) (Ovine COX-1): COX-1-selective
-3.62%	66%	Fc1ccc(CNc2nc(N3CCOCC3)nc3cc(-c4cccs4)ccc23)cc1F [7o]	IC50 (human recombinant COX-2): > 50 µM; inhibition of COX-2 (in words) (human recombinant COX-2): did not inhibit
-5.36%	14.8%	COc1ccc(CNc2nc(N3CCOCC3)nc3cc(-c4cccs4)ccc23)cc1 [7i]	inhibitory activity in COX assays (in words) (Ovine COX-1): inactive
4.43%	-1.12%	CCN(CC)c1nc(NCc2ccc(OC)cc2)c2ccc(-c3ccc(F)cc3)cc2n1 [7h]	
39.9%	96.5%	Fc1ccc(CNc2nc(Cl)nc3cc(-c4cccs4)ccc23)cc1F [6e]	IC50 (human recombinant COX-2): > 50 µM; inhibition of COX-2 (in words) (human recombinant COX-2): did not inhibit
0.8%	-3.35%	COc1ccc(CNc2nc(N3CCOCC3)nc3cc(-c4ccc(OC)cc4)ccc23)cc1 [7a]	
-7.39%	-5.92%	COc1ccc(CNc2nc(N3CCOCC3)nc3cc(-c4ccc(F)cc4)ccc23)cc1 [7e]	
-2.17%	-38.1%	COc1ccc(CNc2nc(N3CCCC3)nc3cc(-c4cccs4)ccc23)cc1 [7j]	inhibitory activity in COX assays (in words) (Ovine COX-1): inactive
30.6%	30.4%	Fc1ccc(CNc2nc(Cl)nc3cc(Br)ccc23)cc1F [5b]	
